Test results from patent US20090023762A1, “Substituted 2-Aminopyrimidine-4-Ones, Their Pharmaceutical Compositions And Their Use In The Treatment And/Or Prevention Of Ab-Related Pathologies” (ASTRAZENECA AB, priority 2005, published 2009).

Target: T1, human β-Secretase (Homo sapiens, UniProt P56817)
T1 construct: The soluble part of the human β-Secretase (AA 1-AA 460) was cloned; Fc domain of IgG1 (C); made in house
Assay: TR-FRET assay
Type: biochemical
Conditions: substrate (Europium)CEVNLDAEFK(Qsy7) 100 nM, enzyme 0.3 nM, pH 4.5
Procedure: The enzyme used in the IGEN Cleavage-, Fluorescent-, TR-FRET- and the BiaCore assay is described as follows:
The soluble part of the human β-Secretase (AA 1-AA 460) was cloned into the ASP2-Fc10-1-IRES-GFP-neoK mammalian expression vector. The gene was fused to the Fc domain of IgG1 (affinity tag) and stably cloned into HEK 293 cells. Purified sBACE-Fc is stored in Tris buffer, pH 9.2 and has a purity of 95%.
Dilute the enzyme (truncated form) to 6 μg/mL (stock 1.3 mg/mL) and the substrate (Europium)CEVNLDAEFK (Qsy7) to 200 nM (stock 60 μM) in reaction buffer (NaAcetate, chaps, triton x-100, EDTA pH4.5). The Biomek FX is used for all liquid handling and the enzyme and substrate solutions are kept on ice until they are placed in Biomek FX. Enzyme (9 μl) is added to the plate then […] in dimethylsulphoxide is added, mixed and pre-incubated for 10 minutes. Substrate (10 μl) is then added, mixed and the reaction proceeds in the dark for 15 minutes at room temperature. The reaction is stopped with the addition of Stop solution (7 μl, NaAcetate pH 9). The fluorescence of the product is measured on a Victor II plate reader with an excitation wavelength of 340 nm and an emission wavelength of 615 nm. The assay is done in a Costar 384 well round bottom, low volume, non-binding surface (Corning #3676). […]

T1 sequence (P56817 22-460): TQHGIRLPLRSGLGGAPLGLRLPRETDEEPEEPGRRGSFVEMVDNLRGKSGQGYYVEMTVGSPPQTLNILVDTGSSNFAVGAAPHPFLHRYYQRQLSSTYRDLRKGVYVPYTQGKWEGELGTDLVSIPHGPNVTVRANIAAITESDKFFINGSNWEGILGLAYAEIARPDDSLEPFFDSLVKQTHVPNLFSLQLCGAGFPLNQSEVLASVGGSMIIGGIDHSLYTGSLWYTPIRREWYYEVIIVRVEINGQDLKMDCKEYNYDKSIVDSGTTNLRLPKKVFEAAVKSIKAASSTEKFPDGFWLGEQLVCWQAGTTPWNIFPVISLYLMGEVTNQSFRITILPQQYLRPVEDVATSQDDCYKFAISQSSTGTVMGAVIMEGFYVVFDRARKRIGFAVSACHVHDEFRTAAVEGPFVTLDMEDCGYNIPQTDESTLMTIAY

## COc1cc(OS(C)(=O)=O)cc(-c2cccc(C3(C)CC(=O)N(C)C(N)=N3)c2)c1 (stereo not shown) [Example 9, 3′-(2-Amino-1,4-dimethyl-6-oxo-1,4,5,6-tetrahydropyrimidin-4-yl)-5-methoxybiphenyl-3-yl methanesulfonate]
  IC50: 703 nM
